This is an account of results in article PMC9402746, “A phase I dose escalation, dose expansion and pharmacokinetic trial of gemcitabine and alisertib in advanced solid tumors and pancreatic cancer” (Cancer Chemotherapy and Pharmacology, 2022).

Broadly, the Cmax is the peak of the concentration-time curve. Broadly, the Tmax is the time from dosing to the highest level.

For data set [1] the following is noted: human, in vivo, 28 days. How it is done:
This was an open-label phase I clinical trial with two-phase design including a dose escalation and an expansion phase in pancreatic cancer. In the dose escalation phase, a standard 3 + 3 design was used to determine the maximum tolerated dose (MTD) of alisertib in combination with gemcitabine. Alisertib was administered orally twice daily (BID) on days 1–3, 8–10, and 15–17 of a 28-day treatment cycle. Gemcitabine was given concurrently at standard dosing of 1000 mg/m^2 intravenously on days 1, 8, 15. A starting dose of alisertib 20 mg BID was used in the dose escalation phase and was escalated in cohorts of at least three evaluable subjects at 30 mg BID, 40 mg BID, and 50 mg BID until MTD or the highest feasible dose level (Table S1). The dose of 50 mg BID was the highest dose allowable and was previously reported as the recommended phase II dose (RP2D) for alisertib monotherapy. In the expansion phase, subjects received the MTD or RP2D following the same cycle schedule. Dose adjustments were allowed for both drugs (Table S1B, 1C).
The MTD was defined as the highest dose tested in which fewer than 33% of subjects experienced DLT attributable to the study drugs, when at least six subjects were treated at that dose and evaluable for toxicity.
DLT was defined as any related (possibly, probably, or definitely) grade 3 non-hematologic toxicity or any attributable grade 4 toxicity. […]

Data set [2] is described as follows: Plasma pharmacokinetics of alisertib, non-compartmental analysis. The class given is in vivo, human. The procedure: (§1) Pharmacokinetic sampling was performed on the expanded cohort of subjects with pancreatic cancer treated at the RP2D. Alisertib was not administered on cycle 1, day 1 to enable gemcitabine pharmacokinetic sampling on day 1 and day 2 of cycle 1 in the absence of co-administered alisertib. This served as the reference baseline for comparison to gemcitabine pharmacokinetics when co-administered with alisertib on day 8 of cycle 1. On cycle 1 day 8, alisertib was administered within 10 min of the start of the gemcitabine infusion, and the second (evening) dose of alisertib was not administered to allow for gemcitabine measurement at the 24 h timepoint. Both the parent drug (gemcitabine, dFdC) and the metabolite (dFdU) were measured to evaluate changes in gemcitabine metabolism related to alisertib administration. Pharmacokinetic blood samples were collected with dipotassium ethylenediaminetetraacetic acid (K2EDTA) as the anticoagulant before treatment, immediately after gemcitabine infusion, and at additional pre-specified post-infusion timepoints. Actual timepoints were recorded for PK parameter evaluation. Measurement of plasma gemcitabine, dFdU, and alisertib concentrations are described in the Supplementary Methods.
(§2) Gemcitabine, dFdU and alisertib PK parameters were estimated using non-compartmental analysis (NCA) with Certara Phoenix WinNonlin 8.0 (Princeton, NJ), including mean peak concentration (Cmax) and exposure (Area Under the Curve, AUC). The AUC parameters were estimated using the linear-up-log-down trapezoidal rule. Tests of significance between day 1 and day 8 PK parameters were performed using paired t-tests with GraphPad Prism 6.07 (San Diego, CA).

Data set [3] in a line: Treatment exposures, delays and dose reductions. The class given is in vivo, human. From the text:
To proceed to the next cycle, lab parameters included ANC ≥ 1500/mm^3 and platelet count ≥ 100,000/mm^3, and all other toxicity considered by the investigator to be related to therapy with alisertib or gemcitabine must have resolved to grade ≤ 1 or to the subject’s baseline values. […] Thereafter, the subject was re-evaluated to determine continuation eligibility. Dose modification (Table S1B, 1C) was required for cycle initiations delayed > 1 week due to incomplete recovery from treatment-related toxicity.
Median number of cycles per subject was 3 (range 1–13), and median duration of treatment was 2.84 months (range 0.36–13.22). Similar median duration of treatment and cycles delivered were observed between the dose levels (Table S2). Proportion of planned dose received, defined as total dose received divided by total planned dose according to the dose level for alisertib and 1000 mg/m^2 for gemcitabine, was calculated according to each subject (Table S3) and each cycle (Fig. 1).

The test system of data set [4] is Aurora Kinase A (AKA) compared to Aurora Kinase B. Set-up: method as in PMID 20382844, PMID 21556291. To be noted: cited from earlier work.
In the next data set the test system is selected CYPs. Further details: method as in PMID 31911485. As to conditions: in vitro; cited from earlier work.
Details of data set [5]: method as in PMID 22753585, PMID 24879333, PMID 25302940. To be noted: twice daily for 7 days in a 21-day cycle; cited from earlier work.
Data set [6] deals with multiple solid organ malignancies. Further details: method as in PMID 25728526. To be noted: cited from earlier work.
The next data set has as its system breast/ovarian cancer. Further details: method as in PMID 30347019. As to conditions: cited from earlier work.
On the set-up of data set [7]: method as in PMID 28852909. To be noted: published literature; cited from earlier work.
The nature of data set [8]: Plasma pharmacokinetics of gemcitabine and dFdU without and with alisertib, non-compartmental analysis. As to conditions: for Percentage extrapolated AUC0->inf, Mean / Cmax / AUC(0-inf) / AUC(0-t): plasma, gemcitabine 1000 mg/m^2 IV; for Cmax / AUC(0-inf) / AUC(0-t): human, iv; for AUC(0-inf): read-out: AUC0->inf, Mean (converted); for AUC(0-t): read-out: AUC0->last, Mean (converted); for Effect of co-administered alisertib on NCA PK parameters (day 1 vs day 8): paired t test, P > 0.05. The class given is in vivo, human. How it is done: as §1, §2

For the next data set, the system named is small cell lung cancer. Further details: method as in PMID 31655296. As to conditions: cited from earlier work.
The mark [9] stands for this setting: monotherapy trial of solid tumors.
The mark [10] stands for this setting: 1000 mg/m2, Day 1 (without alisertib), N 5.
The mark [11] stands for this setting: 1000 mg/m2, Day 8 (with alisertib), N 4.

Structures are written as SMILES. “Also recorded” adds a separate entry of the source. Read-outs that look alike come from different tables or passages of the source.

Consider `COc1cc(Nc2ncc3c(n2)-c2ccc(Cl)cc2C(c2c(F)cccc2OC)=NC3)ccc1C(=O)O` [alisertib], for which the “Recommended phase 2 dose of alisertib combined with gemcitabine” value in [1] is given as 50 mg. Besides, the highest concentration (Cmax) is 1750 ng/mL in data set [2] (Subject 22, day 8, unexpectedly high); 700 to 900 ng/mL in [2] (human, plasma, oral, observed here with gemcitabine, similar to previously reported, read-out: Cmax); 973 ng/mL in data set [2] (human, alisertib oral at RP2D with gemcitabine, cycle 1 day 8, plasma, N 5, read-out: Cmax, Mean). The “Percentage extrapolated AUC0->inf, Mean” value in data set [2] (alisertib oral at RP2D with gemcitabine, cycle 1 day 8, plasma, N 4) is given as 25.08%. The Tmax is 24 h in data set [2] (human, plasma, oral, Subject 24, day 8, unexpectedly long, read-out: Tmax); 1.5 to 4.5 h in data set [2] (human, plasma, oral, other subjects here, day 8, read-out: Tmax); 7.52 h in [2] (human, plasma, po, alisertib oral at RP2D with gemcitabine, cycle 1 day 8, plasma, N 5, read-out: Tmax, Mean (converted)); 3 to 4 h in data set [7]. Also, in data set [2] (human, alisertib oral at RP2D with gemcitabine, cycle 1 day 8, plasma, N 4, read-out: AUC0->inf, Mean (converted)), the AUC(0-inf) is 16300 ng·h/mL. Moreover, the AUC(0-t) in [2] (human, alisertib oral at RP2D with gemcitabine, cycle 1 day 8, plasma, N 5, read-out: AUC0->last, Mean (converted)) was 11800 ng·h/mL. The “Subjects who underwent dose delays/omissions” value in data set [3] (of 26 subjects) stood at 18 subjects. In addition, in [3] (of 26 subjects), the “Subjects with dose reductions” value came out at 9 subjects. The compound further registered a Cycles modified in data set [3] (of 94 cycles delivered) of 27 cycles. Further, the “Selectivity for AKA compared to Aurora Kinase B” value in data set [4] is reported as over 200 fold. Further, in the data set on selected CYPs, the “Inhibition of selected CYPs” value is “not shown appreciable inhibition”. The “RP2D of alisertib monotherapy” value in data set [5] is recorded as 50 mg. Also, the “Rate of SAEs” value in data set [6] (setting [9]) is 43%. For the same compound, in data set [6] (setting [9]), the “Treatment-related adverse events: anemia” value is 10%. Moreover, the “Treatment-related adverse events: leukopenia” value in [6] (setting [9]) is given as 21%. In addition, the “Treatment-related adverse events: neutropenia” value in data set [6] (setting [9]) is recorded as 43%. Moreover, the Response rates in [6] (monotherapy, depending on the primary tumor subtype) was 5–20%. Moreover, the “RP2D of alisertib in combination with paclitaxel” value in the data set on breast/ovarian cancer (twice daily, schedule similar to the one reported here) is listed as 40 mg.

`O=c1ccn([C@@H]2O[C@H](CO)[C@@H](O)C2(F)F)c(=O)[nH]1` [dFdU, 2′, 2′-difluorodeoxyuridine]: in data set [8] (Day 1 (without alisertib), N 5), the “Percentage extrapolated AUC0->inf, Mean” value was 18.13%. For the same compound, the “Percentage extrapolated AUC0->inf, Mean” value in data set [8] (Day 8 (with alisertib), N 4) is listed as 15.73%. Besides, in data set [8] (setting [10]), the concentration peaked (Cmax) at 67900 ng/mL, the AUC(0-inf) was 412000 ng·h/mL and the AUC(0-t) is 363000 ng·h/mL. Also, in data set [8] (setting [11]), the peak level (Cmax) was 73800 ng/mL, the AUC(0-inf) was 363000 ng·h/mL and the AUC(0-t) was 343000 ng·h/mL. Besides, the “Effect of co-administered alisertib on NCA PK parameters (day 1 vs day 8)” value in data set [8] was “No significant changes; also recorded: not significantly affected”.

On to `Nc1ccn([C@@H]2O[C@H](CO)[C@@H](O)C2(F)F)c(=O)n1` [gemcitabine], for which the “Percentage extrapolated AUC0->inf, Mean” value in [8] (Day 1 (without alisertib), N 5) was 0.14%. Also, the “Percentage extrapolated AUC0->inf, Mean” value in data set [8] (Day 8 (with alisertib), N 4) was 0.32%. In addition, in data set [8] (setting [10]), the Cmax was 7420 ng/mL, the AUC(0-inf) is 3600 ng·h/mL and the AUC(0-t) is 3600 ng·h/mL. In data set [8] (setting [11]), the Cmax was 6240 ng/mL, the AUC(0-inf) was 3240 ng·h/mL and the AUC(0-t) is 3230 ng·h/mL. Besides, in data set [8], the “Effect of co-administered alisertib on NCA PK parameters (day 1 vs day 8)” value is listed as “No significant changes; also recorded: not significantly affected”. For the same compound, in data set [3] (of 26 subjects), the “Subjects who required dose delays” value came to 16 subjects, the “Subjects who required dose omission” value was found to be 14 subjects and the “Subjects with dose reductions” value was determined as 5 subjects. Further, in [3] (of 94 cycles delivered), the “Cycles given at a reduced dose” value is on record as 10 cycles, the “Cycles with delayed doses” value was 43 cycles and the “Cycles with dose omissions” value is recorded as 17 cycles.

Take `CC(=O)O[C@H]1C(=O)[C@@]2(C)[C@H]([C@H](OC(=O)c3ccccc3)[C@]3(O)C[C@H](OC(=O)[C@H](O)[C@@H](NC(=O)c4ccccc4)c4ccccc4)C(C)=C1C3(C)C)[C@]1(OC(C)=O)CO[C@@H]1C[C@@H]2O` [paclitaxel]: the mPFS was 2.17 months with small cell lung cancer (89 subjects in each arm) and 4.7 months in the data set on breast/ovarian cancer (breast/ovarian subjects). The Response rate is listed as 18% in the data set on small cell lung cancer and 52% with breast/ovarian cancer (breast/ovarian subjects, p = 0.38).
